Source: patent US6706663B2, “Herbicidal 3-heterocyclic substituted benzisothiazole and benzisoxazole compounds” (Wyeth, priority 2000, dated 2004)

Tests used:
[1] = tested on: ABUTH (Abutilon theophrasti); assay: Postemergence herbicidal evaluation; format: in vivo, Medic.; settings: postemergence
In short: (§1)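 Seedlings grown about two weeks in flats, sprayed, then kept under standard greenhouse care. Rated visually 4–5 weeks after treatment on a 0–9 scale (stand, vigour, malformation, size, chlorosis, overall appearance) relative to untreated control; repeat tests averaged.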

[2] = tested on: AMBEL (Ambrosia artemisifolia); assay: Postemergence herbicidal evaluation; format: in vivo, L.; settings: postemergence
In short: as §1

[3] = tested on: CASOB (Cassia obtusifolia); assay: Postemergence herbicidal evaluation; format: in vivo, L.; settings: postemergence
In short: as §1

[4] = tested on: CHEAL (Chenopodium album); assay: Postemergence herbicidal evaluation; format: in vivo, L.; settings: postemergence
In short: as §1

[5] = tested on: IPOHE (Ipomoea hederacea); assay: Postemergence herbicidal evaluation; format: in vivo, (L.) Jacq.; settings: postemergence
In short: as §1

[6] = tested on: GLXMAW (Soybean, Williams); assay: Postemergence herbicidal evaluation; format: in vivo, Glycine max, (L.) Merr. cv Williams; settings: postemergence
In short: as §1

ORYSAT (Rice, Tebonnet) [7] = assay: Postemergence herbicidal evaluation; format: in vivo, Oryza sativa, (L.) Tebonnet; settings: postemergence
In short: as §1

[8] = tested on: ABUTH (Abutilon theophrasti); assay: Preemergence herbicidal evaluation; format: in vivo, Medic.; settings: rated 4-5 weeks after treatment
[9] = tested on: AMBEL (Ambrosia artemisifolia); assay: Preemergence herbicidal evaluation; format: in vivo, L.; settings: rated 4-5 weeks after treatment
In short: (§2)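 Applied before emergence as an aqueous acetone spray over seeded soil. Read-out: 0–9 visual rating covering plant stand, vigor, size, chlorosis, malformation and overall appearance compared with control, taken 4–5 weeks after spraying.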

[10] = tested on: CASOB (Cassia obtusifolia); assay: Preemergence herbicidal evaluation; format: in vivo, L.; settings: rated 4-5 weeks after treatment
In short: as §2

[11] = tested on: CHEAL (Chenopodium album); assay: Preemergence herbicidal evaluation; format: in vivo, L.; settings: rated 4-5 weeks after treatment
In short: as §2

[12] = tested on: IPOHE (Ipomoea hederacea); assay: Preemergence herbicidal evaluation; format: in vivo, (L.) Jacq.; settings: rated 4-5 weeks after treatment
[13] = tested on: ECHCG (Echinochloa crus-galli); assay: Preemergence herbicidal evaluation; format: in vivo, (L.) Beau; settings: rated 4-5 weeks after treatment
In short: as §2

SETVI (Setaria viridis) = assay: Preemergence herbicidal evaluation; format: in vivo, (L.) Beau; settings: rated 4-5 weeks after treatment
In short: as §2

[14] = tested on: GLXMAW (Soybean, Williams); assay: Preemergence herbicidal evaluation; format: in vivo, Glycine max, (L.) Merr. cv Williams; settings: rated 4-5 weeks after treatment
[15] = tested on: TRZAWR (Wheat, Winter, cv Riband); assay: Preemergence herbicidal evaluation; format: in vivo, Triticum aestivum; settings: rated 4-5 weeks after treatment
In short: as §2

ZEAMX (Corn, Field) = assay: Preemergence herbicidal evaluation; format: in vivo, Zea mays, L.; settings: rated 4-5 weeks after treatment
CYPIR (Cyperus iria) = assay: Flooded paddy, preemergence weed control; format: in vivo; settings: rated 3-4 weeks after treatment, 0-9 rating scale
In short: (§3)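 Greenhouse paddy test, preemergence. Seeds planted in the top 0.5 cm of silt loam soil, which remained flooded at 1.5–3 cm depth. Scored 0-9 by visual comparison with control.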

[16] = tested on: MOOVA (Monochoria vaginalis); assay: Flooded paddy, preemergence weed control; format: in vivo, Presl.; settings: rated 3-4 weeks after treatment, 0-9 rating scale
In short: as §3

ORYSAT (Rice, Tebonnet) [17] = assay: Flooded paddy, post-transplant rice tolerance; format: in vivo, Oryza sativa, (L.) Tebonnet; settings: flooded paddy, post-transplant rice, rated 3-4 weeks after treatment, 0-9 rating scale
In short: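 Visual 0–9 injury rating against a control, covering stand, vigor, malformation, size, chlorosis and overall appearance. Treatment was post-transplant onto flooded containers (water 1.5–3 cm deep, silt loam) holding two ten-day-old cv. Tebonnet seedlings, maintained on greenhouse benches.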

Cn1c(C(F)(F)F)cc(=O)n(-c2ccc3snc(C4OCC(CCl)O4)c3c2)c1=O (centres unmarked) [Compound 72, 3-[3-[4-(chloromethyl)-1,3-dioxolan-2-yl]-1,2-benzisothiazol-5-yl]-1-methyl-6-(trifluoromethyl)uracil]
ABUTH herbicidal rating ([1]; rate 0.0320 kg/ha): 9.0
ABUTH herbicidal rating ([1]; rate 0.0620 kg/ha): 9.0
AMBEL herbicidal rating ([2]; rate 0.0320 kg/ha): 9.0
AMBEL herbicidal rating ([2]; rate 0.0620 kg/ha): 9.0
CASOB herbicidal rating ([3]; rate 0.0320 kg/ha): 5.0
CASOB herbicidal rating ([3]; rate 0.0620 kg/ha): 5.0
CHEAL herbicidal rating ([4]; rate 0.0320 kg/ha): 9.0
CHEAL herbicidal rating ([4]; rate 0.0620 kg/ha): 9.0
IPOHE herbicidal rating ([5]; rate 0.0320 kg/ha): 9.0
IPOHE herbicidal rating ([5]; rate 0.0620 kg/ha): 9.0
GLXMAW herbicidal rating ([6]; rate 0.0320 kg/ha): 6.5
GLXMAW herbicidal rating ([6]; rate 0.0620 kg/ha): 8.5
ORYSAT herbicidal rating (ORYSAT (Rice, Tebonnet) [7]; rate 0.0320 kg/ha): 4.0
ORYSAT herbicidal rating (ORYSAT (Rice, Tebonnet) [7]; rate 0.0620 kg/ha): 4.5
Preemergence herbicidal rating ABUTH ([8]; Rate 0.0620 kg/ha): 9.0
Preemergence herbicidal rating ABUTH ([8]; Rate 0.1250 kg/ha): 9.0
Preemergence herbicidal rating ABUTH ([8]; Rate 0.2500 kg/ha): 9.0
Preemergence herbicidal rating AMBEL ([9]; Rate 0.0620 kg/ha): 9.0
Preemergence herbicidal rating AMBEL ([9]; Rate 0.1250 kg/ha): 9.0
Preemergence herbicidal rating AMBEL ([9]; Rate 0.2500 kg/ha): 9.0
Preemergence herbicidal rating CASOB ([10]; Rate 0.0620 kg/ha): 3.0
Preemergence herbicidal rating CASOB ([10]; Rate 0.1250 kg/ha): 6.5
Preemergence herbicidal rating CASOB ([10]; Rate 0.2500 kg/ha): 8.0
Preemergence herbicidal rating CHEAL ([11]; Rate 0.0620 kg/ha): 9.0
Preemergence herbicidal rating CHEAL ([11]; Rate 0.1250 kg/ha): 9.0
Preemergence herbicidal rating CHEAL ([11]; Rate 0.2500 kg/ha): 9.0
Preemergence herbicidal rating IPOHE ([12]; Rate 0.0620 kg/ha): 3.5
Preemergence herbicidal rating IPOHE ([12]; Rate 0.1250 kg/ha): 6.5
Preemergence herbicidal rating IPOHE ([12]; Rate 0.2500 kg/ha): 8.0
Preemergence herbicidal rating ECHCG ([13]; Rate 0.0620 kg/ha): 9.0
Preemergence herbicidal rating ECHCG ([13]; Rate 0.1250 kg/ha): 9.0
Preemergence herbicidal rating ECHCG ([13]; Rate 0.2500 kg/ha): 9.0
Preemergence herbicidal rating SETVI (SETVI (Setaria viridis); Rate 0.0620 kg/ha): 9.0
Preemergence herbicidal rating SETVI (SETVI (Setaria viridis); Rate 0.1250 kg/ha): 9.0
Preemergence herbicidal rating SETVI (SETVI (Setaria viridis); Rate 0.2500 kg/ha): 9.0
Preemergence herbicidal rating GLXMAW ([14]; Rate 0.0620 kg/ha): 6.5
Preemergence herbicidal rating GLXMAW ([14]; Rate 0.1250 kg/ha): 9.0
Preemergence herbicidal rating GLXMAW ([14]; Rate 0.2500 kg/ha): 9.0
Preemergence herbicidal rating TRZAWR ([15]; Rate 0.0620 kg/ha): 7.0
Preemergence herbicidal rating TRZAWR ([15]; Rate 0.1250 kg/ha): 9.0
Preemergence herbicidal rating TRZAWR ([15]; Rate 0.2500 kg/ha): 9.0
Preemergence herbicidal rating ZEAMX (ZEAMX (Corn, Field); Rate 0.0620 kg/ha): 8.0
Preemergence herbicidal rating ZEAMX (ZEAMX (Corn, Field); Rate 0.1250 kg/ha): 8.5
Preemergence herbicidal rating ZEAMX (ZEAMX (Corn, Field); Rate 0.2500 kg/ha): 9.0
herbicidal rating, CYPIR (CYPIR (Cyperus iria); rate 0.0080 kg/ha): 0.0
herbicidal rating, CYPIR (CYPIR (Cyperus iria); rate 0.0320 kg/ha): 3.0
herbicidal rating, CYPIR (CYPIR (Cyperus iria); rate 0.1250 kg/ha): 9.0
herbicidal rating, MOOVA ([16]; rate 0.0080 kg/ha): 0.0
herbicidal rating, MOOVA ([16]; rate 0.0320 kg/ha): 9.0
herbicidal rating, MOOVA ([16]; rate 0.1250 kg/ha): 9.0
herbicidal rating, ORYSAT (rice tolerance) (ORYSAT (Rice, Tebonnet) [17]; rate 0.0080 kg/ha): 0.0
herbicidal rating, ORYSAT (rice tolerance) (ORYSAT (Rice, Tebonnet) [17]; rate 0.0320 kg/ha): 7.0
herbicidal rating, ORYSAT (rice tolerance) (ORYSAT (Rice, Tebonnet) [17]; rate 0.1250 kg/ha): 8.0
